Test results: patent publication US12569453B2, “Use of tapinarof for the treatment of atopic dermatitis” (Dermavant Sciences GmbH, priority 2018, dated 2026)

What was measured:
[1] = Phase II AD study: plasma PK samples; type: in vivo, human; details: for concentration at 1 week: Week 1; for concentration at 2 week: Week 2; for concentration at 4 week: Week 4; for concentration at 8 week: Week 8
Protocol: Pharmacokinetics: A total of 5 blood samples for PK analysis of GSK2894512 were collected from each subject over the clinic visits at Weeks 1, 2, 4, 8, and 12. Plasma analysis was performed under the management of Bioanalytical Science and Toxicokinetics, DMPK, GSK.
Pharmacokinetics: Subjects with atopic dermatitis, BSA involvement >5% and <35%, excluding scalp, and Baseline IGA score of >3 at Baseline, participated in this study in which 2 concentrations of Tapinarof cream (0.5% and 1%) and a vehicle control were evaluated following application to all AD lesions (except on the scalp) once or twice daily for 12 weeks.
A total of 5 blood samples for PK analysis of Tapinarof were collected from each subject at the following clinic visits: Weeks 1, 2, 4, 8, and 12. Subjects were advised to provide PK samples during each of the following 3 time windows: 1 to 3 hours post application, 3 to 6 hours post application, and 6 to 12 hours post application.

[2] = Phase II psoriasis study: plasma PK samples; type: in vivo, human; details: of 860 samples from patients receiving an active dose
Protocol: Pharmacokinetics: Sparse PK sampling throughout the duration of the study was intended to be used to develop a population PK model and to estimate population PK parameters (i.e., apparent clearance [CL/F], apparent volume of distribution [V/F]) of systemic exposure, according to the Time and Events Table. Plasma analysis was performed under the management of Bioanalysis, Immunogenicity & Biomarkers, IVIVT, PTS, GSK.
The bioanalytical method used to support the study was a fully validated Liquid Chromatography-Tandem Mass Spectrometry (LC-MS/MS) method in accordance with FDA/EU/MHLW guidelines [US Department of Health and Human Services, Food and Drug Administration Draft Guidance for Industry: Bioanalytical Method Validation, 2013] [European Medicines Agency Guideline on Bioanalytical Method Validation, 2011] [Japanese Ministry of Health Guideline on Bioanalytical Method Validation in Pharmaceutical Development, 2013].

[3] = minipig 28 day toxicology, formulation F (NOAEL); type: in vivo; details: 3% [60 mg/kg/day]
[4] = rat subcutaneous 13-week toxicology study (NOAEL) and predicted safety margin; details: in vivo, sc, rat subcutaneous 3 mg/kg/day, read-out: NOAEL AUC(0-24)
Text: The predicted maximum systemic exposure to Tapinarof in this study was expected to be lower than the no observed adverse effects level (NOAEL) identified in nonclinical toxicology studies.

[5] = tested on: adolescent and adult subjects with AD; experiment: Phase II AD study: safety and tolerability; type: in vivo, human
Protocol: Safety was assessed by the monitoring and recording of all AEs and serious adverse events (SAEs); evaluation of local (application site) tolerability; monitoring of hematology (including peripheral blood immunophenotyping and immunoglobulins), clinical chemistry, and vital signs; and the performance of ECGs and physical examinations.

[6] = human, plasma, topical, 0.5 % cream BID, Subject 111301, 0.5% BID
[7] = human, plasma, topical, 0.5 % cream BID, Subject 316851, 0.5% BID
[8] = human, plasma, topical, 1 % cream BID, Subject 110406, 1% BID
[9] = human, plasma, topical, 1 % cream BID, Subject 110604, 1% BID
[10] = Japanese subjects, pooled active (n=30)
[11] = adolescent subjects, pooled active (n=49)
[12] = adult subjects, pooled active (n=116)
[13] = pooled active treatment groups (n=165)

## CC(C)c1c(O)cc(/C=C/c2ccccc2)cc1O [Tapinarof, 3,5-Dihydroxy-4-isopropyl-trans-stilbene]
[1]; 0.5% BID
  subjects with plasma concentration >0.84 ng/mL (minipig NOAEL Cmax): 4 subjects
[1]; 0.5% QD
  subjects with plasma concentration >0.84 ng/mL (minipig NOAEL Cmax): 2 subjects
[1]; 1% BID
  subjects with plasma concentration >0.84 ng/mL (minipig NOAEL Cmax): 5 subjects
[1]; 1% QD
  subjects with plasma concentration >0.84 ng/mL (minipig NOAEL Cmax): 2 subjects
[1]; all Tapinarof groups, out of 247
  subjects with plasma concentration >0.84 ng/mL (minipig NOAEL Cmax): 13 subjects
[1]; [6]
  concentration at 1 week: 6.09 ng/mL
  concentration at 2 week: 0.438 ng/mL
  concentration at 4 week: 0.649 ng/mL
[1]; [7]
  concentration at 1 week: 0.362 ng/mL
  concentration at 2 week: 0.106 ng/mL
  concentration at 8 week: 1.93 ng/mL
[1]; [8]
  concentration at 1 week: 0.233 ng/mL
  concentration at 2 week: 0.347 ng/mL
  concentration at 4 week: 4.9 ng/mL
  concentration at 8 week: 0.514 ng/mL
[1]; [9]
  concentration at 1 week: 1.48 ng/mL
  concentration at 2 week: 0.266 ng/mL
  concentration at 4 week: 0.43 ng/mL
  concentration at 8 week: 0.0716 ng/mL
[1]; human, plasma, topical, 1 % cream BID, Subject 110604, 1% BID, Week 12
  concentration at 12 week: 0.311 ng/mL
[1]; human, plasma, topical, 1 % cream BID, Subject 316651, 1% BID
  concentration at 2 week: 181 ng/mL
[1]; of 753 samples from subjects on active treatment, LLOQ 0.04 ng/mL
  quantifiable plasma samples: 348
[2]
  plasma samples below the Lower Limit of Quantitation (LLQ): 649 samples
  plasma samples quantified: 157 samples
[3]
  gender averaged NOAEL Cmax: 0.84 ng/mL
[4]
  AUC(0-t): 99 ng·h/mL
[5]; 0.5% BID
  Impetigo: 0 n
  Serious TEAEs: 0 n
  atopic dermatitis leading to study treatment discontinuation: 7%
  subjects with abnormal clinically significant ECGs at any post-screening visit: 12%
[5]; 0.5% BID, listed as GSK2894512
  Nasopharyngitis: 4 n
[5]; 0.5% QD
  Impetigo: 0 n
  Serious TEAEs: 0 n
  atopic dermatitis leading to study treatment discontinuation: 2%
  subjects with abnormal clinically significant ECGs at any post-screening visit: 21%
[5]; 0.5% QD, listed as GSK2894512
  Nasopharyngitis: 1 n
[5]; 1% BID
  subjects with abnormal clinically significant ECGs at any post-screening visit: 30%
[5]; 1% BID, listed as GSK2894512
  Nasopharyngitis: 3 n
[5]; 1% QD
  Acne: 0 n
  Dermatitis atopic: 0 n
  Discontinuous due to TEAEs: 0 n
  Impetigo: 0 n
  Serious TEAEs: 0 n
  subjects with abnormal clinically significant ECGs at any post-screening visit: 24%
[5]; 1% QD, listed as GSK2894512
  Nasopharyngitis: 5 n
[5]; [10]
  subjects permanently discontinuing treatment due to TEAEs: 3%
  subjects with mild TEAEs: 50%
  subjects with moderate TEAEs: 10%
  subjects with treatment-related TEAEs: 17%
[5]; active treatment groups
  atopic dermatitis AE, median duration: 12.5 days
  atopic dermatitis AE, median time to onset: 40.5 days
  headache, median duration: 2 days
  headache, median time to onset: 2 days
  nasopharyngitis, median duration: 9 days
  nasopharyngitis, median time to onset: 32 days
  upper respiratory tract infection, median duration: 16.5 days
  upper respiratory tract infection, median time to onset: 32.5 days
[5]; [11]
  subjects permanently discontinuing treatment due to TEAEs: 6%
  subjects with mild TEAEs: 41%
  subjects with moderate TEAEs: 14%
  subjects with severe TEAEs: 2%
  subjects with treatment-related TEAEs: 16%
[5]; [12]
  subjects permanently discontinuing treatment due to TEAEs: 3%
  subjects with mild TEAEs: 28%
  subjects with moderate TEAEs: 25%
  subjects with severe TEAEs: 3%
  subjects with treatment-related TEAEs: 14%
[5]; all cases in active treatment groups
  folliculitis, median start date (since Day 1): 17 days
[5]; all in Tapinarof treatment groups
  subjects with elevations in liver chemistries (ALT/AST >2×ULN): 6 subjects
[5]; pooled active groups
  treatment-related atopic dermatitis: 1%
[5]; pooled active groups (n=165)
  Acne: 4%
  Impetigo: 1%
  Nasopharyngitis: 8%
  atopic dermatitis (worsening/flare): 4%
  atopic dermatitis leading to study treatment discontinuation: 2%
  folliculitis: 11%
  headache: 5%
  treatment-related application site pain: 1%
  treatment-related folliculitis: 5%
  upper respiratory tract infection: 7%
[5]; [13]
  subjects permanently discontinuing treatment due to TEAEs: 4%
  subjects with TEAEs: 56%
  subjects with mild TEAEs: 32%
  subjects with moderate TEAEs: 22%
  subjects with severe TEAEs: 2%
  subjects with treatment-related TEAEs: 15%
[5]; treatment groups pooled
  subjects with TEAEs considered related to treatment: 24 subjects
  subjects with at least one AE: 97 subjects
  subjects with at least one TEAE: 93 subjects
